# Tests used:
# Format in all cases: biochemical
# [1] = biological target: T1, SHP1 (Homo sapiens, UniProt P29350); assay: Tyrosine phosphatase selectivity (pNPP substrate), SHP1; conditions: for IC50: SHP1, pNPP substrate; for IC50PTP/IC50SHP2 SHP1: selectivity ratio SHP1 over SHP2
# T1 construct: made in house; host or cells: E. coli
# Experimental: (§1) This experiment evaluated the selectivity of the disclosed compounds against tyrosine phosphatases, including SHP1, HePTP, Laforin, LMWPTP, LYP, PTP1B, PRL2, SSU72, VHR, FAP1, STEP, CDC14A, CD45, MEG2, and PP5, all expressed and purified from E. coli.
# (§2) Phosphatase activity was measured using p-nitrophenyl phosphate (pNPP) (Fisher Scientific) as the substrate in 50 mM 3,3-dimethylglutaric acid buffer (pH 7.0, containing 1 mM EDTA), with ionic strength adjusted to 0.15 M with NaCl. […] After 10-60 minutes, the reaction was quenched by adding 20 µL of 5 N NaOH. Wells without enzyme were used as controls for correction. The amount of the product, p-nitrophenol, was determined by measuring the absorbance at 405 nm using a Spectra MAX340 microplate spectrophotometer (Molecular Devices), with a molar extinction coefficient of 18000 M^-1cm^-1.
# (§3) Data were analyzed using GraphPad Prism software. Dose-response curves were obtained by fitting data using the nonlinear S-curve regression Dose-response-inhibition equation, and IC50 values were calculated.
# [2] = biological target: T2, HePTP (Homo sapiens, UniProt P35236); assay: Tyrosine phosphatase selectivity (pNPP substrate), HePTP; conditions: for IC50: HePTP, pNPP substrate; for IC50PTP/IC50SHP2 HePTP: selectivity ratio HePTP over SHP2
# T2 construct: made in house; host or cells: E. coli
# T2 sequence (P35236 1-360): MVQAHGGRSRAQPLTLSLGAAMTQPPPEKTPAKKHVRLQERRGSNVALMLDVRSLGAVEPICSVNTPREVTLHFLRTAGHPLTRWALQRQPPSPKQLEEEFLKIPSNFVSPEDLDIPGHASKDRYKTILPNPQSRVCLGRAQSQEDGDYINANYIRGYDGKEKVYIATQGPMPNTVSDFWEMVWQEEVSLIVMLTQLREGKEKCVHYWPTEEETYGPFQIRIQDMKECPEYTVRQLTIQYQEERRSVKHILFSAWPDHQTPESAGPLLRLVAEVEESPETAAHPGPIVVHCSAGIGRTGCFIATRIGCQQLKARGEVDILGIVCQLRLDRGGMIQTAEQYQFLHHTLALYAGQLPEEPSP
# Experimental: as §1, §2, §3
# [3] = biological target: T3, LMWPTP (Homo sapiens, UniProt P24666); assay: Tyrosine phosphatase selectivity (pNPP substrate), LMWPTP; conditions: for IC50: LMPTP*, pNPP substrate; for IC50PTP/IC50SHP2 LMPTP*: selectivity ratio LMPTP* over SHP2
# T3 construct: made in house; host or cells: E. coli
# T3 sequence (P24666 1-158): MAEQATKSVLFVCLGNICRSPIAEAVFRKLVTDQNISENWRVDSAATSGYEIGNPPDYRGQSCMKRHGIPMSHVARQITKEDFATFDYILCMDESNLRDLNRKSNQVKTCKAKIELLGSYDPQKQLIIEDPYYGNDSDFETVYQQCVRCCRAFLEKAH
# Experimental: as §1, §2, §3
# [4] = biological target: T4, LYP (Homo sapiens, UniProt Q9Y2R2); assay: Tyrosine phosphatase selectivity (pNPP substrate), LYP; conditions: for IC50: LYP, pNPP substrate; for IC50PTP/IC50SHP2 LYP: selectivity ratio LYP over SHP2
# T4 construct: made in house; host or cells: E. coli
# T4 sequence (Q9Y2R2 1-807): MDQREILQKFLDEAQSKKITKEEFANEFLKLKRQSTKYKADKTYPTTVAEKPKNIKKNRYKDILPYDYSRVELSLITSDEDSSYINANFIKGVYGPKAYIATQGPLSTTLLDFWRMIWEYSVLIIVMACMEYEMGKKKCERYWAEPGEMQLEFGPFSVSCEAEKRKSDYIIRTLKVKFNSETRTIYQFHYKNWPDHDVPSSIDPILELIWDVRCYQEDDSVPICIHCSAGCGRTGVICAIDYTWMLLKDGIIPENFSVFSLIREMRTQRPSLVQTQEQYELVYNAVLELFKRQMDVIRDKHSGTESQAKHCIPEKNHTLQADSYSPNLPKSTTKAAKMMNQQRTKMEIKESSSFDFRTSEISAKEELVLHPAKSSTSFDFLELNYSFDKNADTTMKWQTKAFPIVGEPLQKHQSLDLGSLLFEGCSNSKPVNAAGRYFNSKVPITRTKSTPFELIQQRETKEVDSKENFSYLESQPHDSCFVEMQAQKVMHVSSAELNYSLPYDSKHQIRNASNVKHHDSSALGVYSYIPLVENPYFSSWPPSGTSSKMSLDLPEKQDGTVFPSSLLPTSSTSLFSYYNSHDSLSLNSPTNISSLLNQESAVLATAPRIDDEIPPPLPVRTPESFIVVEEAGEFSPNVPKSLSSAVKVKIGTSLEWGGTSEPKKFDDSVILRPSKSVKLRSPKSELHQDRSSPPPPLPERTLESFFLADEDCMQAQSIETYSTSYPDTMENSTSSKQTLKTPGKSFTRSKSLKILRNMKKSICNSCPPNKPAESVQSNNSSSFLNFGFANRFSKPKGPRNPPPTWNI
# Experimental: as §1, §2, §3
# [5] = biological target: T5, SSU72 (Homo sapiens, UniProt Q9NP77); assay: Tyrosine phosphatase selectivity (pNPP substrate), SSU72; conditions: for IC50: SSU72, pNPP substrate; for IC50PTP/IC50SHP2 SSU72: selectivity ratio SSU72 over SHP2
# T5 construct: made in house; host or cells: E. coli
# T5 sequence (Q9NP77 1-194): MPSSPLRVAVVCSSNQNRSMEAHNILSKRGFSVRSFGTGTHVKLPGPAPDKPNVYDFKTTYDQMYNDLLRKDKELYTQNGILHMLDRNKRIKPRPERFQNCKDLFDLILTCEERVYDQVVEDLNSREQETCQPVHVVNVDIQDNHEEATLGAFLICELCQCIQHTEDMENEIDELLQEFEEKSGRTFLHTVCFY
# Experimental: as §1, §2, §3
# [6] = biological target: T6, VHR (Homo sapiens, UniProt P51452); assay: Tyrosine phosphatase selectivity (pNPP substrate), VHR; conditions: for IC50: VHR, pNPP substrate; for IC50PTP/IC50SHP2 VHR: selectivity ratio VHR over SHP2
# T6 construct: made in house; host or cells: E. coli
# Experimental: as §1, §2, §3
# [7] = biological target: T7, STEP (Homo sapiens, UniProt P54829); assay: Tyrosine phosphatase selectivity (pNPP substrate), STEP; conditions: for IC50: STEP, pNPP substrate; for IC50PTP/IC50SHP2 STEP: selectivity ratio STEP over SHP2
# T7 construct: made in house; host or cells: E. coli
# T7 sequence (P54829 1-565): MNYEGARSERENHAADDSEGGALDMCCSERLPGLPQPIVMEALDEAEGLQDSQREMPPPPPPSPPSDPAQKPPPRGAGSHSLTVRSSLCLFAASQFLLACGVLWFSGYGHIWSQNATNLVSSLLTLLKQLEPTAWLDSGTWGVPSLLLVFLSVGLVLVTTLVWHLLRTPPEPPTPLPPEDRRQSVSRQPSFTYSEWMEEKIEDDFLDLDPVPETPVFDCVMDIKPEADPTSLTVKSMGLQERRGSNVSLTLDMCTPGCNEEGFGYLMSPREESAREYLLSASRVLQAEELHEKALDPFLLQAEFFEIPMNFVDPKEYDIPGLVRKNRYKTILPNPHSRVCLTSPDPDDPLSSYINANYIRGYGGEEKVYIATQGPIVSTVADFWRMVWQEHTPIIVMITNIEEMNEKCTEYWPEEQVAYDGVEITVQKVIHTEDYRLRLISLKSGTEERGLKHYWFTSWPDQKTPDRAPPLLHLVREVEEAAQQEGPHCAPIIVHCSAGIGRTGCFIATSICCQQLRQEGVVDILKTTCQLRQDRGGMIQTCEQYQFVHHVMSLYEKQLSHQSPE
# Experimental: as §1, §2, §3
# T1 sequence (P29350 whole entry): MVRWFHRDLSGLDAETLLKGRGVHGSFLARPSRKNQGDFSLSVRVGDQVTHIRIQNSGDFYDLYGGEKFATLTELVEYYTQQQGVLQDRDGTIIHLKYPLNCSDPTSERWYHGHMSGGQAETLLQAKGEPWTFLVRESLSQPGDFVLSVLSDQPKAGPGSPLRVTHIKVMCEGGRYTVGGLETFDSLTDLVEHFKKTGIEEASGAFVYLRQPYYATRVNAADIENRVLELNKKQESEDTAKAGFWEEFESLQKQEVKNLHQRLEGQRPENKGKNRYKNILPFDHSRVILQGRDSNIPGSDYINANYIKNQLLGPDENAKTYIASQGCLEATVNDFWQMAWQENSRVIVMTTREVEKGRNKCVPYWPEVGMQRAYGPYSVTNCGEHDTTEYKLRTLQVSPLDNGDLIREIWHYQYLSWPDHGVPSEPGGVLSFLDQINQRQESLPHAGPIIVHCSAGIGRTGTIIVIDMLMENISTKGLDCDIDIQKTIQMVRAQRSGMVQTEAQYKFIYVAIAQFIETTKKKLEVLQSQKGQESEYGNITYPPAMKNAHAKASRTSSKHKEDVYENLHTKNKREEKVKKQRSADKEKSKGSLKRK
# T6 sequence (P51452 whole entry, species assumed): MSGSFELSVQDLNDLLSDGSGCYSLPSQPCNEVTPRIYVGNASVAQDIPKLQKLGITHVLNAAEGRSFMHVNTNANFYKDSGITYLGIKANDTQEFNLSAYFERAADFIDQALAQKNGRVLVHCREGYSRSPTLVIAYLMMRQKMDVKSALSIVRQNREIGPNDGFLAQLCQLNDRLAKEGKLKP
SMILES,IC50 [1],IC50PTP/IC50SHP2 SHP1 [1],IC50 [2],IC50PTP/IC50SHP2 HePTP [2],IC50 [3],IC50PTP/IC50SHP2 LMPTP* [3],IC50 [4],IC50PTP/IC50SHP2 LYP [4],IC50 [5],IC50PTP/IC50SHP2 SSU72 [5],IC50 [6],IC50PTP/IC50SHP2 VHR [6],IC50 [7],IC50PTP/IC50SHP2 STEP [7]
O=C(Nc1ccc(-c2cc3cc(F)c(-c4nnn[nH]4)cc3n2C2CCC2)cc1)C(=O)Nc1ccc(N2CCC3(CCOC3)CC2)cc1 [Example 67],110 nM,3.2,950 nM,27.9,1370 nM,40.2,76 nM,2.2,16 nM,0.47,4450 nM,130,6940 nM,204.1
O=C(Nc1ccc(-c2ccsc2)cc1)C(=O)Nc1ccc(-c2cc3ccc(-c4nnn[nH]4)nc3n2C2CCC2)cc1 [Example 129],700 nM,11.9,> 20000 nM,339.0,> 20000 nM,339.0,1200 nM,20.3,35800 nM,606.8,< 3000 nM,50.8,< 3000 nM,50.8
O=C(Nc1ccc(-c2ccsc2)cc1)C(=O)Nc1ccc(-c2cc3cnc(-c4nnn[nH]4)nc3n2C2CCC2)cc1 [Example 131],800 nM,30.8,6100 nM,234.6,> 20000 nM,769.2,500 nM,19.2,< 3000 nM,115.4,9900 nM,380.8,8400 nM,323.1
Cn1cc(-c2ccc(NC(=O)C(=O)Nc3ccc(-c4cc5cc(F)c(-c6noc(=O)[nH]6)cc5n4C4CCC4)cc3)cc2)cn1 [Example 123],320 nM,2.3,1330 nM,9.4,2480 nM,17.6,1070 nM,7.6,> 100000 nM,709.2,2440 nM,17.3,15500 nM,109.9
O=C(Nc1ccc(-c2ccsc2)cc1)C(=O)Nc1ccc(-c2cc3cc(F)c(-c4nnn[nH]4)cc3n2C2CCC2)cc1 [Example 4],600 nM,20.7,4500 nM,155.2,> 20000 nM,689.7,500 nM,17.2,< 3000 nM,103.4,4500 nM,155.2,4500 nM,155.2
O=C(Nc1ccc(-c2ccsc2)cc1)C(=O)Nc1ccc(-c2oc3cc(F)c(-c4nnn[nH]4)cc3c2C2CCC2)cc1 [Example 130],600 nM,24.0,> 20000 nM,800,> 20000 nM,800,1200 nM,48,< 3000 nM,120,< 3000 nM,120,< 3000 nM,120

# Source: EP4741383A1, “COMPOUND AND USE THEREOF AS ANTI-CANCER DRUG” (Tyligand Bioscience (Shanghai) Limited, priority 2023, dated 2025)
